In this assay the target is Phospholipid-transporting ATPase ABCA1 (Mus musculus, UniProt P41233). Nature of the assay: Induction of ABCA1-mediated [3H]cholesterol efflux in mouse RAW 264.7 macrophages after 24 hrs.

*1 amine or outer side, *2 acyl side, *3 side chain or, on linkers, in order; H or OH if unused. Where a SMILES comes first, the peptide text is derived from it. [ ]: non-standard residue; d: D form. Gly(oct-7-en-1-yl) = C=CCCCCCC[C@H](N)C(=O)O; dGly(6-heptenyl) = C=CCCCCC[C@@H](N)C(=O)O; Ala(5-hexenyl) = C=CCCCCC[C@H](N)C(=O)O; dNle(6-vinyl) = C=CCCCC[C@@H](N)C(=O)O; Gly(octyl) = CCCCCCCC[C@H](N)C(=O)O; X1 = CCCCCCC[C@H](N[*:1])C(=O)[*:2]; X2 = C=CCCCC[C@H](N[*:1])C(=O)[*:2] Where only a bound is given, the exact number is not on record here.

For orientation: EC50 means the midpoint of the concentration-response curve. A lower EC50 goes with higher potency in that assay.

Sequence of Phospholipid-transporting ATPase ABCA1 (P41233 whole entry): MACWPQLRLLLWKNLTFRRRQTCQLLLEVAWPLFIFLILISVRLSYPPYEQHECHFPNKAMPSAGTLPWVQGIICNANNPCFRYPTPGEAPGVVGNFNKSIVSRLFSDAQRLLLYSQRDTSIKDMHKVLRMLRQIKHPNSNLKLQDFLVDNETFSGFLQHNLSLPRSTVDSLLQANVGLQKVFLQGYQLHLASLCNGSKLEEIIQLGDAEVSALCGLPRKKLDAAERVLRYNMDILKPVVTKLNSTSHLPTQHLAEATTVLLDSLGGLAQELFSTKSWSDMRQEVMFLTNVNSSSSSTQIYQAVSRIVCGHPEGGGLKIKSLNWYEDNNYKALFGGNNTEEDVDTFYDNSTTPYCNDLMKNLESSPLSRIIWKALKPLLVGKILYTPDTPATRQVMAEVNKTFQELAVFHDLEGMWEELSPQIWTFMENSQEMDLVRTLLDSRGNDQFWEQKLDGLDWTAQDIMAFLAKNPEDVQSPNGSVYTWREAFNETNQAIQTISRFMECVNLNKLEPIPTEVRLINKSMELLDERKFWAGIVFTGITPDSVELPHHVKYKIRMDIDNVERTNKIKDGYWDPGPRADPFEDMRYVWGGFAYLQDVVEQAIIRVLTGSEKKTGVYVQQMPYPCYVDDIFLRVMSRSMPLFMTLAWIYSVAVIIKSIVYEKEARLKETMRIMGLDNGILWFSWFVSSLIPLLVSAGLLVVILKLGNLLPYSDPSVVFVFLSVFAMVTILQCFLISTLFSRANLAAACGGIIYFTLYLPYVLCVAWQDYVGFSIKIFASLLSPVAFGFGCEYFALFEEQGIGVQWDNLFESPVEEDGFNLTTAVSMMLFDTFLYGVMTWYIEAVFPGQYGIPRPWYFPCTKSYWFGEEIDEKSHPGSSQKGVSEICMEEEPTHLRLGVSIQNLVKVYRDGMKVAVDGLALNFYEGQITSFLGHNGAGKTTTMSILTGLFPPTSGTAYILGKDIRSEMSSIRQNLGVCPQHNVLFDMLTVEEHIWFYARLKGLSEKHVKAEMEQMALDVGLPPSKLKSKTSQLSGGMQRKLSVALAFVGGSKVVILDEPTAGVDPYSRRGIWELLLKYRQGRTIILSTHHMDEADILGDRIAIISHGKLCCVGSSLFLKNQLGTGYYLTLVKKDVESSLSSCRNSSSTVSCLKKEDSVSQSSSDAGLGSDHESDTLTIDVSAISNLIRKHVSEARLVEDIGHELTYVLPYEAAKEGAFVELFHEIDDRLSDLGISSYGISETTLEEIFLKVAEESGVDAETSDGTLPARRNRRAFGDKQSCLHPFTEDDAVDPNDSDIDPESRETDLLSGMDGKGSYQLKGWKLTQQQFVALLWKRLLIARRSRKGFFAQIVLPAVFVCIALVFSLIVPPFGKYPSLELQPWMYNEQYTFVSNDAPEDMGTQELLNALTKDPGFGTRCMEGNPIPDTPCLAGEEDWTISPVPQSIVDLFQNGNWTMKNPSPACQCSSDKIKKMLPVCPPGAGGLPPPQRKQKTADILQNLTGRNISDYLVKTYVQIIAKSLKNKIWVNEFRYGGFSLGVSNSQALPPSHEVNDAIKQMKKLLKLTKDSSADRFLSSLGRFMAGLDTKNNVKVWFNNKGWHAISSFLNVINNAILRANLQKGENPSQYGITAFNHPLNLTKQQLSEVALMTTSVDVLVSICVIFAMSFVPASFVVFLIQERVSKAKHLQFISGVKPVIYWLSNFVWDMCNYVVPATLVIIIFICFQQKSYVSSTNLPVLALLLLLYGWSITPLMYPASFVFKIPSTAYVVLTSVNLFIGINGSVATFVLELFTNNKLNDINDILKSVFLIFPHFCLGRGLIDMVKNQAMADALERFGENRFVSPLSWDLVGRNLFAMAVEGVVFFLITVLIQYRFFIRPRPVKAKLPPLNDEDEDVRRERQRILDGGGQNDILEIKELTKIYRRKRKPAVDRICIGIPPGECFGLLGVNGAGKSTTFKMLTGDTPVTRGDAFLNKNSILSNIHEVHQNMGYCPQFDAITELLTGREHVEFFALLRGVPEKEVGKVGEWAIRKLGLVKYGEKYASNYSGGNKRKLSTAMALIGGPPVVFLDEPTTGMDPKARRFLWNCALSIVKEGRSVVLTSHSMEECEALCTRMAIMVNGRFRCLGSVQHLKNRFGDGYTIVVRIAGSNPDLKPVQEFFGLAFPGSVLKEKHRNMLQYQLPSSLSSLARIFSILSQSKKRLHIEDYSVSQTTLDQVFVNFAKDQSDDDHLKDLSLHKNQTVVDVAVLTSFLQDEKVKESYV

Regarding `C=CCCCCC[C@@H](NC(=O)[C@H](CCCCN)NC(=O)[C@H](CCC(N)=O)NC(=O)[C@H](CCCCN)NC(=O)[C@H](CC(C)C)NC(=O)[C@H](C)NC(=O)[C@H](CCC(=O)O)NC(=O)[C@H](CC(C)C)NC(=O)[C@H](CCC(=O)O)NC(=O)[C@H](CCC(=O)O)NC(=O)[C@H](CC(N)=O)NC(=O)[C@H](CC(C)C)NC(=O)[C@H](CCCCN)NC(=O)[C@H](CCC(=O)O)NC(=O)[C@H](CCCNC(=N)N)NC(=O)[C@H](Cc1ccccc1)NC(=O)[C@H](CCC(=O)O)NC(=O)[C@H](CC(=O)O)NC(=O)[C@H](CC(C)C)NC(=O)[C@@H](NC(=O)[C@@H]1CCCN1C(C)=O)C(C)C)C(=O)N[C@@H](CCCCN)C(N)=O`, the EC50 was over 100000 nM.
Consider `C=CCCCCC[C@H](NC(=O)[C@H](CCC(=O)O)NC(=O)[C@H](CC(N)=O)NC(=O)[C@H](CC(C)C)NC(=O)[C@H](CCCCN)NC(=O)[C@H](CCC(=O)O)NC(=O)[C@H](CCCNC(=N)N)NC(=O)[C@H](Cc1ccccc1)NC(=O)[C@H](CCC(=O)O)NC(=O)[C@H](CC(=O)O)NC(=O)[C@H](CC(C)C)NC(=O)[C@@H](NC(=O)[C@@H]1CCCN1C(C)=O)C(C)C)C(=O)N[C@@H](CC(C)C)C(=O)N[C@@H](CCC(=O)O)C(=O)N[C@@H](C)C(=O)N[C@@H](CC(C)C)C(=O)N[C@@H](CCCCN)C(=O)N[C@@H](CCC(N)=O)C(=O)N[C@@H](CCCCN)C(=O)N[C@@H](CC(C)C)C(=O)N[C@@H](CCCCN)C(N)=O` (Ac-PVLDEFREKLNE[Ala(5-hexenyl)]LEALKQKLK-NH2), for which the concentration for a half-maximal effect (EC50) was determined as 2400 nM.
Under `C=CCCCCC[C@H](NC(=O)[C@H](CCC(N)=O)NC(=O)[C@H](CCCCN)NC(=O)[C@H](CC(C)C)NC(=O)[C@H](C)NC(=O)[C@H](CCC(=O)O)NC(=O)[C@H](CC(C)C)NC(=O)[C@H](CCCCCC=C)NC(=O)[C@H](CCC(=O)O)NC(=O)[C@H](CC(N)=O)NC(=O)[C@H](CC(C)C)NC(=O)[C@H](CCCCN)NC(=O)[C@H](CCC(=O)O)NC(=O)[C@H](CCCN=C(N)N)NC(=O)[C@H](Cc1ccccc1)NC(=O)[C@H](CCC(=O)O)NC(=O)[C@H](CC(=O)O)NC(=O)[C@H](CC(C)C)NC(=O)[C@@H](NC(=O)[C@@H]1CCCN1C(C)=O)C(C)C)C(=O)N[C@@H](CC(C)C)C(=O)N[C@@H](CCCCN)C(N)=O` (Ac-PVLDEFREKLNE[Ala(5-hexenyl)]LEALKQ[Ala(5-hexenyl)]LK-NH2) stands 900 nM.
The value for `C=CCCCCCC[C@H](NC(=O)[C@H](CCC(=O)O)NC(=O)[C@H](CC(N)=O)NC(=O)[C@H](CC(C)C)NC(=O)[C@H](CCCCN)NC(=O)[C@H](CCC(=O)O)NC(=O)[C@H](CCCN=C(N)N)NC(=O)[C@H](Cc1ccccc1)NC(=O)[C@H](CCC(=O)O)NC(=O)[C@H](CC(=O)O)NC(=O)[C@H](CC(C)C)NC(=O)[C@@H](NC(=O)[C@@H]1CCCN1C(C)=O)C(C)C)C(=O)N[C@@H](CC(C)C)C(=O)N[C@@H](CCC(=O)O)C(=O)N[C@@H](C)C(=O)N[C@@H](CC(C)C)C(=O)N[C@@H](CCCCN)C(=O)N[C@@H](CCC(N)=O)C(=O)N[C@@H](CCCCN)C(=O)N[C@@H](CC(C)C)C(=O)N[C@@H](CCCCN)C(N)=O` (Ac-PVLDEFREKLNE[Gly(oct-7-en-1-yl)]LEALKQKLK-NH2) was 700 nM; that for `CCCCCCC[C@H](NC(=O)[C@H](CCC(=O)O)NC(=O)[C@H](CC(N)=O)NC(=O)[C@H](CC(C)C)NC(=O)[C@H](CCCCN)NC(=O)[C@H](CCC(=O)O)NC(=O)[C@H](CCCN=C(N)N)NC(=O)[C@H](Cc1ccccc1)NC(=O)[C@H](CCC(=O)O)NC(=O)[C@H](CC(=O)O)NC(=O)[C@H](CC(C)C)NC(=O)[C@@H](NC(=O)[C@@H]1CCCN1C(C)=O)C(C)C)C(=O)N[C@@H](CC(C)C)C(=O)N[C@@H](CCC(=O)O)C(=O)N[C@@H](C)C(=O)N[C@@H](CC(C)C)C(=O)N[C@@H](CCCCN)C(=O)N[C@@H](CCC(N)=O)C(=O)N[C@@H](CCCCN)C(=O)N[C@@H](CC(C)C)C(=O)N[C@@H](CCCCN)C(N)=O` (Ac-PVLDEFREKLNE[X1]LEALKQKLK-NH2) was 700 nM; that for `C=CCCCC[C@H](NC(=O)[C@H](CCC(=O)O)NC(=O)[C@H](CC(N)=O)NC(=O)[C@H](CC(C)C)NC(=O)[C@H](CCCCN)NC(=O)[C@H](CCC(=O)O)NC(=O)[C@H](CCCNC(=N)N)NC(=O)[C@H](Cc1ccccc1)NC(=O)[C@H](CCC(=O)O)NC(=O)[C@H](CC(=O)O)NC(=O)[C@H](CC(C)C)NC(=O)[C@@H](NC(=O)[C@@H]1CCCN1C(C)=O)C(C)C)C(=O)N[C@@H](CC(C)C)C(=O)N[C@@H](CCC(=O)O)C(=O)N[C@@H](C)C(=O)N[C@@H](CC(C)C)C(=O)N[C@@H](CCCCN)C(=O)N[C@@H](CCC(N)=O)C(=O)N[C@@H](CCCCN)C(=O)N[C@@H](CC(C)C)C(=O)N[C@@H](CCCCN)C(N)=O` (Ac-PVLDEFREKLNE[X2]LEALKQKLK-NH2) was 1400 nM.
Under `C=CCCCCC[C@@H](NC(=O)[C@H](CCC(=O)O)NC(=O)[C@H](CC(N)=O)NC(=O)[C@H](CC(C)C)NC(=O)[C@H](CCCCN)NC(=O)[C@H](CCC(=O)O)NC(=O)[C@H](CCCN=C(N)N)NC(=O)[C@H](Cc1ccccc1)NC(=O)[C@H](CCC(=O)O)NC(=O)[C@H](CC(=O)O)NC(=O)[C@H](CC(C)C)NC(=O)[C@@H](NC(=O)[C@@H]1CCCN1C(C)=O)C(C)C)C(=O)N[C@@H](CC(C)C)C(=O)N[C@@H](CCC(=O)O)C(=O)N[C@@H](C)C(=O)N[C@@H](CC(C)C)C(=O)N[C@@H](CCCCN)C(=O)N[C@@H](CCC(N)=O)C(=O)N[C@@H](CCCCN)C(=O)N[C@@H](CC(C)C)C(=O)N[C@@H](CCCCN)C(N)=O` (Ac-PVLDEFREKLNE[dGly(6-heptenyl)]LEALKQKLK-NH2) stands 9500 nM; under `C=CCCCC[C@@H](NC(=O)[C@H](CCC(=O)O)NC(=O)[C@H](CC(N)=O)NC(=O)[C@H](CC(C)C)NC(=O)[C@H](CCCCN)NC(=O)[C@H](CCC(=O)O)NC(=O)[C@H](CCCN=C(N)N)NC(=O)[C@H](Cc1ccccc1)NC(=O)[C@H](CCC(=O)O)NC(=O)[C@H](CC(=O)O)NC(=O)[C@H](CC(C)C)NC(=O)[C@@H](NC(=O)[C@@H]1CCCN1C(C)=O)C(C)C)C(=O)N[C@@H](CC(C)C)C(=O)N[C@@H](CCC(=O)O)C(=O)N[C@@H](C)C(=O)N[C@@H](CC(C)C)C(=O)N[C@@H](CCCCN)C(=O)N[C@@H](CCC(N)=O)C(=O)N[C@@H](CCCCN)C(=O)N[C@@H](CC(C)C)C(=O)N[C@@H](CCCCN)C(N)=O` (Ac-PVLDEFREKLNE[dNle(6-vinyl)]LEALKQKLK-NH2), 31000 nM.
Regarding `C=CCCCCC[C@H](NC(=O)[C@H](CCC(N)=O)NC(=O)[C@H](CCCCN)NC(=O)[C@H](CC(C)C)NC(=O)[C@H](C)NC(=O)[C@H](CCC(=O)O)NC(=O)[C@H](CC(C)C)NC(=O)[C@H](CCCCCC=C)NC(=O)[C@H](CCC(=O)O)NC(=O)[C@H](CC(N)=O)NC(=O)[C@H](CC(C)C)NC(=O)[C@H](CCCCN)NC(=O)[C@H](CCC(=O)O)NC(=O)[C@H](CCCNC(=N)N)NC(=O)[C@H](CCCCCC=C)NC(=O)[C@H](CCC(=O)O)NC(=O)[C@H](CC(=O)O)NC(=O)[C@H](CC(C)C)NC(=O)[C@@H](NC(=O)[C@@H]1CCCN1C(C)=O)C(C)C)C(=O)N[C@@H](CC(C)C)C(=O)N[C@@H](CCCCN)C(N)=O` (Ac-PVLDE[Ala(5-hexenyl)]REKLNE[Ala(5-hexenyl)]LEALKQ[Ala(5-hexenyl)]LK-NH2), the EC50 was 1800 nM.
The compound `C=CCCCCCC[C@H](NC(=O)[C@H](CCC(=O)O)NC(=O)[C@H](CC(N)=O)NC(=O)[C@H](CC(C)C)NC(=O)[C@H](CCCCN)NC(=O)[C@H](CCC(=O)O)NC(=O)[C@H](CCCN=C(N)N)NC(=O)[C@H](CCCCCCC=C)NC(=O)[C@H](CCC(=O)O)NC(=O)[C@H](CC(=O)O)NC(=O)[C@H](CC(C)C)NC(=O)[C@@H](NC(=O)[C@@H]1CCCN1C(C)=O)C(C)C)C(=O)N[C@@H](CC(C)C)C(=O)N[C@@H](CCC(=O)O)C(=O)N[C@@H](C)C(=O)N[C@@H](CC(C)C)C(=O)N[C@@H](CCCCN)C(=O)N[C@@H](CCC(N)=O)C(=O)N[C@@H](CCCCN)C(=O)N[C@@H](CC(C)C)C(=O)N[C@@H](CCCCN)C(N)=O` (Ac-PVLDE[Gly(oct-7-en-1-yl)]REKLNE[Gly(oct-7-en-1-yl)]LEALKQKLK-NH2) registered an EC50 of 400 nM.
On to `CCCCCCCC[C@H](NC(=O)[C@H](CCC(=O)O)NC(=O)[C@H](CC(N)=O)NC(=O)[C@H](CC(C)C)NC(=O)[C@H](CCCCN)NC(=O)[C@H](CCC(=O)O)NC(=O)[C@H](CCCNC(=N)N)NC(=O)[C@H](CCCCCCCC)NC(=O)[C@H](CCC(=O)O)NC(=O)[C@H](CC(=O)O)NC(=O)[C@H](CC(C)C)NC(=O)[C@@H](NC(=O)[C@@H]1CCCN1C(C)=O)C(C)C)C(=O)N[C@@H](CC(C)C)C(=O)N[C@@H](CCC(=O)O)C(=O)N[C@@H](C)C(=O)N[C@@H](CC(C)C)C(=O)N[C@@H](CCCCN)C(=O)N[C@@H](CCC(N)=O)C(=O)N[C@@H](CCCCN)C(=O)N[C@@H](CC(C)C)C(=O)N[C@@H](CCCCN)C(N)=O` (Ac-PVLDE[Gly(octyl)]REKLNE[Gly(octyl)]LEALKQKLK-NH2), for which the EC50 was 600 nM.
The value for `C=CCCCCC[C@H](NC(=O)[C@H](CCC(=O)O)NC(=O)[C@H](CC(N)=O)NC(=O)[C@H](CC(C)C)NC(=O)[C@H](CCCCN)NC(=O)[C@H](CCC(=O)O)NC(=O)[C@H](CCCN=C(N)N)NC(=O)[C@H](Cc1ccccc1)NC(=O)[C@H](CCC(=O)O)NC(=O)[C@H](CC(=O)O)NC(=O)[C@H](CC(C)C)NC(=O)[C@H](CCCCCC=C)NC(=O)[C@@H]1CCCN1C(C)=O)C(=O)N[C@@H](CC(C)C)C(=O)N[C@@H](CCC(=O)O)C(=O)N[C@@H](C)C(=O)N[C@@H](CC(C)C)C(=O)N[C@@H](CCCCN)C(=O)N[C@@H](CCC(N)=O)C(=O)N[C@@H](CCCCN)C(=O)N[C@@H](CC(C)C)C(=O)N[C@@H](CCCCN)C(N)=O` (Ac-P[Ala(5-hexenyl)]LDEFREKLNE[Ala(5-hexenyl)]LEALKQKLK-NH2) was 400 nM; that for `C=CCCCCC[C@H](NC(=O)[C@H](CCC(N)=O)NC(=O)[C@H](CCCCN)NC(=O)[C@H](CC(C)C)NC(=O)[C@H](C)NC(=O)[C@H](CCC(=O)O)NC(=O)[C@H](CC(C)C)NC(=O)[C@H](CCCCCC=C)NC(=O)[C@H](CCC(=O)O)NC(=O)[C@H](CC(N)=O)NC(=O)[C@H](CC(C)C)NC(=O)[C@H](CCCCN)NC(=O)[C@H](CCC(=O)O)NC(=O)[C@H](CCCN=C(N)N)NC(=O)[C@H](Cc1ccccc1)NC(=O)[C@H](CCC(=O)O)NC(=O)[C@H](CC(=O)O)NC(=O)[C@H](CC(C)C)NC(=O)[C@H](CCCCCC=C)NC(=O)[C@@H]1CCCN1C(C)=O)C(=O)N[C@@H](CC(C)C)C(=O)N[C@@H](CCCCN)C(N)=O` (Ac-P[Ala(5-hexenyl)]LDEFREKLNE[Ala(5-hexenyl)]LEALKQ[Ala(5-hexenyl)]LK-NH2) was 5000 nM.

For the origin of these results see ChEMBL document CHEMBL1629456, “ApoA-I mimetic peptides promote pre-β HDL formation in vivo causing remodeling of HDL and triglyceride accumulation at higher dose” (Bioorg Med Chem, 2010).
